In patent US20230295200A1 (REGENTS OF THE UNIVERSITY OF MICHIGAN, priority 2022, published 2023):

biological target: T1, STAT6 protein (Homo sapiens, UniProt P42226); experiment: Fluorescence polarization (FP) binding assay, STAT6; conditions: FP competition, 5 nM fluorescein-labeled tracer, 200 nM protein, PBS pH7.4; read-out: Binding STAT6
T1 sequence (P42226 1-847): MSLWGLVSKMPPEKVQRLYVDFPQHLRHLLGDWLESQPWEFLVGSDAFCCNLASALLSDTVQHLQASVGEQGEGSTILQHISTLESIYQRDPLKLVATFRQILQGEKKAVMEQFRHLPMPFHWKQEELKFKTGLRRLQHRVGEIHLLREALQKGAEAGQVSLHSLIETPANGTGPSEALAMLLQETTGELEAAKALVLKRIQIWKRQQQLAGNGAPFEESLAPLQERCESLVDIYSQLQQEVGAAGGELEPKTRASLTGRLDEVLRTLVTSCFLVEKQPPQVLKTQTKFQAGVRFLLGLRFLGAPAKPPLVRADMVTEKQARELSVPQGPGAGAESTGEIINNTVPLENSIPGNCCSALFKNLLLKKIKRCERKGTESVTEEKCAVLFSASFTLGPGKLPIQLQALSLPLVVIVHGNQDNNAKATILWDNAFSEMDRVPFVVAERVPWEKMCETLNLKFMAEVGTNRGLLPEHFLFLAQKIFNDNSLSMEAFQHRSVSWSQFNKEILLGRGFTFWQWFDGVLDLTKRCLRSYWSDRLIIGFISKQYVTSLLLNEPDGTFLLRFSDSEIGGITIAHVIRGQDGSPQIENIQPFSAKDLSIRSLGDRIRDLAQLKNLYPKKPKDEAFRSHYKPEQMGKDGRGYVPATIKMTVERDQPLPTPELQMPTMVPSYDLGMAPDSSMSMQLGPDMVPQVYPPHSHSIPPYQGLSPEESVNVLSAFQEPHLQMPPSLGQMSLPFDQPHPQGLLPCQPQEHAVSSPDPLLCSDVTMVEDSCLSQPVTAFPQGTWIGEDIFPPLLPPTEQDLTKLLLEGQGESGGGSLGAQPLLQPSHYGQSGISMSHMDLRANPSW
Method: Evaluation of the activity of the inhibitors may be accomplished by fluorescence polarization (FP) experiments. A representative general protocol is the following:
Fluorescence polarization (FP) experiments are performed in black round-bottom plates using the CLARIOstar microplate reader. To each well, fluorescein-labeled tracer and STAT5 or STAT6 protein are added in assay buffer. […] The inhibition constants are determined as the concentration of the STAT5 or STAT6 at which 50% of the ligand is bound.
Fluorescence polarization (FP) experiments were performed in 96-well, black round-bottom plates (Microfluor 2, Fisher Scientific) using the CLARIOstar microplate reader (BMG Labtech). To each well, 5 nM of fluoresceinlabeled tracer and 200 nM of STAT5 and/or STAT6 protein were added to a final volume of 100 μl in the assay buffer (PBS pH7.4+0.01% BGG+0.01% Tween-20, 2 mM DTT). The plate was mixed on a shaker for 15 m and incubated at room temperature for 1 h to reach equilibrium. […] All experimental data were analyzed using Prism 8.0 software (GraphPad Software), and the inhibition constants were determined by nonlinear curve fitting as the concentration of the STAT5 and/or STAT6 at which 50% of the ligand is bound.

Structure (SMILES)	Ki [nM]
CC1(c2ccc(F)cc2)CN(C(=O)[C@@H]2Cc3ccccc3CN2C(=O)[C@@H](NC(=O)c2cc3cc(C(F)(F)P(=O)(O)O)ccc3s2)C(C)(C)C)CCO1 (stereo partly drawn) [Compound 236, (difluoro(2-(((2S)-1-((3S)-3-(2-(4-fluorophenyl)-2-methylmorpholine-4-carbonyl)-3,4-dihydroisoquinolin-2(1H)-yl)-3,3-dimethyl-1-oxobutan-2-yl)carbamoyl)benzo[b]thiophen-5-yl)methyl)phosphonic acid]	1000 to 10000
CC(C)(C)[C@H](NC(=O)c1cc2cc(C(F)(F)P(=O)(O)O)ccc2s1)C(=O)N1Cc2ccccc2C[C@H]1C(=O)N1CCOC(c2ccc(F)cc2F)C1 (stereo partly drawn) [Compound 237, ((2-(((2S)-1-((3S)-3-(2-(2,4-difluorophenyl)morpholine-4-carbonyl)-3,4-dihydroisoquinolin-2(1H)-yl)-3,3-dimethyl-1-oxobutan-2-yl)carbamoyl)benzo[b]thiophen-5-yl)difluoromethyl)phosphonic acid]	100 to 1000
CC(C)(C)[C@H](NC(=O)c1cc2cc(C(F)(F)P(=O)(O)O)ccc2s1)C(=O)N1Cc2ccccc2C[C@H]1C(=O)N1CCOC(c2ccc(F)c(F)c2)C1 (stereo partly drawn) [Compound 238, ((2-(((2S)-1-((3S)-3-(2-(3,4-difluorophenyl)morpholine-4-carbonyl)-3,4-dihydroisoquinolin-2(1H)-yl)-3,3-dimethyl-1-oxobutan-2-yl)carbamoyl)benzo[b]thiophen-5-yl)difluoromethyl)phosphonic acid]	100 to 1000
CC(C)(C)[C@H](NC(=O)c1cc2cc(C(F)(F)P(=O)(O)O)ccc2s1)C(=O)N1Cc2ccccc2C[C@H]1C(=O)N1CCOC(c2ccc(F)c(Cl)c2)C1 (stereo partly drawn) [Compound 239, ((2-(((2S)-1-((3S)-3-(2-(3-chloro-4-fluorophenyl)morpholine-4-carbonyl)-3,4-dihydroisoquinolin-2(1H)-yl)-3,3-dimethyl-1-oxobutan-2-yl)carbamoyl)benzo[b]thiophen-5-yl)difluoromethyl)phosphonic acid]	1000 to 10000
CC(C)(C)[C@H](NC(=O)c1cc2cc(C(F)(F)P(=O)(O)O)ccc2s1)C(=O)N1Cc2ccccc2C[C@H]1C(=O)N1CCOC(c2ccc(Cl)c(Cl)c2)C1 (stereo partly drawn) [Compound 240, ((2-(((2S)-1-((3S)-3-(2-(3,4-dichlorophenyl)morpholine-4-carbonyl)-3,4-dihydroisoquinolin-2(1H)-yl)-3,3-dimethyl-1-oxobutan-2-yl)carbamoyl)benzo[b]thiophen-5-yl)difluoromethyl)phosphonic acid]	100 to 1000
Cc1cc(C2CN(C(=O)[C@@H]3Cc4ccccc4CN3C(=O)[C@@H](NC(=O)c3cc4cc(C(F)(F)P(=O)(O)O)ccc4s3)C(C)(C)C)CCO2)ccc1F (stereo partly drawn) [Compound 241, (difluoro(2-(((2S)-1-((3S)-3-(2-(4-fluoro-3-methylphenyl)morpholine-4-carbonyl)-3,4-dihydroisoquinolin-2(1H)-yl)-3,3-dimethyl-1-oxobutan-2-yl)carbamoyl)benzo[b]thiophen-5-yl)methyl)phosphonic acid]	1000 to 10000
CC(C)(C)[C@H](NC(=O)c1cc2cc(C(F)(F)P(=O)(O)O)ccc2s1)C(=O)N1Cc2ccccc2C[C@H]1C(=O)N1CCOC(c2cc(Cl)cc(Cl)c2)C1 (stereo partly drawn) [Compound 242, ((2-(((2S)-1-((3S)-3-(2-(3,5-dichlorophenyl)morpholine-4-carbonyl)-3,4-dihydroisoquinolin-2(1H)-yl)-3,3-dimethyl-1-oxobutan-2-yl)carbamoyl)benzo[b]thiophen-5-yl)difluoromethyl)phosphonic acid]	100 to 1000
CC(C)(C)[C@H](NC(=O)c1cc2cc(C(F)(F)P(=O)(O)O)ccc2s1)C(=O)N1Cc2ccccc2C[C@H]1C(=O)N1CCOC(c2cc(F)c(Cl)cc2Cl)C1 (stereo partly drawn) [Compound 243, ((2-(((2S)-1-((3S)-3-(2-(2,4-dichloro-5-fluorophenyl)morpholine-4-carbonyl)-3,4-dihydroisoquinolin-2(1H)-yl)-3,3-dimethyl-1-oxobutan-2-yl)carbamoyl)benzo[b]thiophen-5-yl)difluoromethyl)phosphonic acid]	100 to 1000
CC(C)(C)[C@H](NC(=O)c1cc2cc(C(F)(F)P(=O)(O)O)ccc2s1)C(=O)N1Cc2ccccc2C[C@H]1C(=O)N1CCCCC(c2ccccc2)C1 (stereo partly drawn) [Compound 244, ((2-(((2S)-3,3-dimethyl-1-oxo-1-((3S)-3-(3-phenylazepane-1-carbonyl)-3,4-dihydroisoquinolin-2(1H)-yl)butan-2-yl)carbamoyl)benzo[b]thiophen-5-yl)difluoromethyl)phosphonic acid]	1000 to 10000
CC(C)(C)[C@H](NC(=O)c1cc2cc(C(F)(F)P(=O)(O)O)ccc2s1)C(=O)N1Cc2ccccc2C[C@H]1C(=O)N1CCCC(c2cccc(F)c2)C1 (stereo partly drawn) [Compound 245, (difluoro(2-(((2S)-1-((3S)-3-(3-(3-fluorophenyl)piperidine-1-carbonyl)-3,4-dihydroisoquinolin-2(1H)-yl)-3,3-dimethyl-1-oxobutan-2-yl)carbamoyl)benzo[b]thiophen-5-yl)methyl)phosphonic acid]	100 to 1000
CC(C)(C)[C@H](NC(=O)c1cc2cc(C(F)(F)P(=O)(O)O)ccc2s1)C(=O)N1Cc2ccccc2C[C@H]1C(=O)N1CCCC(c2ccc(Cl)cc2)C1 (stereo partly drawn) [Compound 246, ((2-(((2S)-1-((3S)-3-(3-(4-chlorophenyl)piperidine-1-carbonyl)-3,4-dihydroisoquinolin-2(1H)-yl)-3,3-dimethyl-1-oxobutan-2-yl)carbamoyl)benzo[b]thiophen-5-yl)difluoromethyl)phosphonic acid]	100 to 1000
CC(C)(C)[C@H](NC(=O)c1cc2cc(C(F)(F)P(=O)(O)O)ccc2s1)C(=O)N1CCC[C@H]1C(=O)N1CCOC(c2cc(F)cc(F)c2)C1 (stereo partly drawn) [Compound 265, ((2-(((2S)-1-((2S)-2-(2-(3,5-difluorophenyl)morpholine-4-carbonyl)pyrrolidin-1-yl)-3,3-dimethyl-1-oxobutan-2-yl)carbamoyl)benzo[b]thiophen-5-yl)difluoromethyl)phosphonic acid]	100 to 1000
CC(C)(C)[C@H](NC(=O)c1cc2cc(C(F)(F)P(=O)(O)O)ccc2s1)C(=O)N1CCC[C@H]1C(=O)N1CC(C(=O)O)CC(c2ccccc2)C1 (stereo partly drawn) [Compound 266, 1-(((S)-2-(5-(difluoro(phosphono)methyl)benzo [b]thiophene-2-carboxamido)-3,3-dimethylbutanoyl)-L-prolyl)-5-phenylpiperidine-3-carboxylic acid]	1000 to 10000
O=C(N[C@H](C(=O)N1CCC[C@H]1C(=O)N1CCO[C@H](c2ccccc2)C1)C1CCNCC1)c1cc2cc(C(F)(F)P(=O)(O)O)ccc2s1 [Compound 269, (difluoro(2-(((S)-2-oxo-2-((S)-2-((R)-2-phenylmorpholine-4-carbonyl)pyrrolidin-1-yl)-1-(piperidin-4-yl)ethyl)carbamoyl)benzo[b]thiophen-5-yl)methyl)phosphonic acid]	100 to 1000
O=C(N[C@@H](Cc1ccncc1)C(=O)N1CCC[C@H]1C(=O)N1CCO[C@H](c2ccccc2)C1)c1cc2cc(C(F)(F)P(=O)(O)O)ccc2s1 [Compound 270, (difluoro(2-(((S)-1-oxo-1-((S)-2-((R)-2-phenylmorpholine-4-carbonyl)pyrrolidin-1-yl)-3-(pyridin-4-yl)propan-2-yl)carbamoyl)benzo[b]thiophen-5-yl)methyl)phosphonic acid]	100 to 1000
